# Values quoted from earlier work, collected in publication PMC9762682, “Tocotrienols: Exciting Biological and Pharmacological Properties of Tocotrienols and Naturally Occurring Compounds, Part II” (Annals of clinical case reports, 2022).
# Read-outs that look alike come from different tables or passages of the source. Marks after values point to notes of the source that are not given here.
# Legend:
# [1] = tested on: B-Lymphocyte cells; design: method as in PMID 29606130; value at effective dose: unit not given here;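 as to IC50: anti-proliferation of cancer cells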
# [2] = tested on: T-cells (Jurkat); design: method as in PMID 29606130
# [3] = design: method as in ref 16 = [16]; PMID 27493840; doi:10.4172/2155-9880.1000434; 16. Qureshi AA , Khan DA , Silswal N , Saleem S , Qureshi N . Evaluation of pharmacokinetics and bioavailability of higher doses of δ-tocotrienol in healthy fed humans . J Clin Exp Cardiol . 2016; 7
# [4] = tested on: Liver cancer cells; design: method as in PMID 29606130; value at effective dose: unit not given here
# [5] = design: method as in ref 14 = [14]; PMID 27493840; doi:10.4172/2155-9880.1000434; 14. Qureshi AA , Khan DA , Saleem S , Silswal N , Trias AM , Tan B , Pharmacokinetics and bioavailability of Annatto δ-tocotrienol in healthy fed subjects . J Clin Exp Cardiol . 2015; 6 : 11 . 10.417
# [6] = tested on: plasma miRNAs; design: method as in earlier work
# [7] = tested on: 20S rabbit muscle proteasome
# [8] = plasma tocol after single dose 750 mg δ-tocotrienol
# [9] = plasma tocol after single dose 750 mg δ-tocotrienol, listed as δ-tocotrienol
# [10] = plasma tocol after single dose 1000 mg δ-tocotrienol
# [11] = plasma tocol after single dose 1000 mg δ-tocotrienol, listed as δ-tocotrienol
# [12] = plasma tocol after single 125 mg δ-tocotrienol dose, healthy fed subjects
# [13] = plasma tocol after single 125 mg δ-tocotrienol dose, healthy fed subjects, listed as δ-tocotrienol
# [14] = plasma tocol after single 250 mg δ-tocotrienol dose, healthy fed subjects
# [15] = plasma tocol after single 250 mg δ-tocotrienol dose, healthy fed subjects, listed as δ-tocotrienol
# [16] = plasma tocol after single 500 mg δ-tocotrienol dose, healthy fed subjects
# [17] = plasma tocol after single 500 mg δ-tocotrienol dose, healthy fed subjects, listed as δ-tocotrienol
# [18] = 250 mg/d + AHA Step-1 diet, baseline = 100
structure (smiles),measurement,setting,value
CC(C)=CCC/C(C)=C/CC/C(C)=C/CC[C@]1(C)CCc2cc(O)cc(C)c2O1 [δ-Tocotrienol],IC50,[1],10 µM
same,effective dose,[1],20 µM
same,percentage of control at IC50 dose,[1],55%
same,percentage of control at effective dose,[1],21%
same,value at effective dose,[1],2.7 ± 1.5
same,IC50,[2],20 µM
same,percentage of control at IC50 dose,[2],32%
same,plasma tocol level,"[3]; 0 Hr., single dose 750 mg δ-tocotrienol",132 ± 12 ng/mL
same,plasma tocol level,"[3]; 0 Hr., single dose 1000 mg δ-tocotrienol",360 ± 20 ng/mL
same,Time of clearance (Cl-T),[3]; 750 mg/d,0.086 h⁻¹
same,Time of clearance (Cl-T),[3]; 1000 mg/d,0.078 h⁻¹
same,plasma tocol level,"[3]; 1 hr., single dose 750 mg δ-tocotrienol",310 ± 28 ng/mL
same,plasma tocol level,"[3]; 1 hr., single dose 1000 mg δ-tocotrienol",993 ± 33 ng/mL
same,plasma tocol level,"[3]; 2 hr., single dose 750 mg δ-tocotrienol",877 ± 24 ng/mL
same,plasma tocol level,"[3]; 2 hr., single dose 1000 mg δ-tocotrienol",1593 ± 44 ng/mL
same,plasma tocol level,"[3]; 4 hr., single dose 750 mg δ-tocotrienol",1444 ± 53 ng/mL
same,plasma tocol level,"[3]; 4 hr., single dose 1000 mg δ-tocotrienol",884 ± 45 ng/mL
same,plasma tocol level,"[3]; 6 hr., single dose 750 mg δ-tocotrienol",759 ± 30 ng/mL
same,plasma tocol level,"[3]; 6 hr., single dose 1000 mg δ-tocotrienol",562 ± 47 ng/mL
same,plasma tocol level,"[3]; 8 hr., single dose 750 mg δ-tocotrienol",523 ± 13 ng/mL
same,Area Under the Curve-t0 - t8 (AUC0-8),[3]; [8],6620.87 ± 49.67^a ^* ng/ml
same,Area Under the Curve-t0 - ∞ (AUC0-∞),[3]; [8],8687.69 ± 201.01^a ^* ng/ml
same,Elimination of Half-life time (t1/2),[3]; [8],2.74 ± 0.13^a h
same,Elimination rate constant (ke),[3]; [8],0.253 ± 0.167^a h-1
same,Peak Plasma Concentration (Cmax),[3]; [8],1444.23 ± 53.07^a ng/ml
same,Time of clearance (Cl-T),[3]; [8],0.086 ± 0.002^a I/h
same,Time to achieve plasma peak (Tmax),[3]; [8],4.00^a h
same,Area Under the Curve-t0 - t8 (AUC0-8),[3]; [9],6620 ng·h/mL
same,Area Under the Curve-t0 - ∞ (AUC0-∞),[3]; [9],8690 ng·h/mL
same,Elimination rate constant (ke),[3]; [9],0.25 h⁻¹
same,Peak Plasma Concentration (Cmax),[3]; [9],1444 ng/mL
same,Area Under the Curve-t0 - t8 (AUC0-8),[3]; [10],7450.10 ± 89.01^a ^* ng/ml
same,Area Under the Curve-t0 - ∞ (AUC0-∞),[3]; [10],9633.18 ± 382.98^a ^* ng/ml
same,Elimination of Half-life time (t1/2),[3]; [10],2.68 ± 0.29^a h
same,Elimination rate constant (ke),[3]; [10],0.260 ± 0.143^a h-1
same,Peak Plasma Concentration (Cmax),[3]; [10],1591.89 ± 43.97^a ng/ml
same,Time of clearance (Cl-T),[3]; [10],0.078 ± 0.003^a I/h
same,Time to achieve plasma peak (Tmax),[3]; [10],4.00^a h
same,Area Under the Curve-t0 - t8 (AUC0-8),[3]; [11],7450 ng·h/mL
same,Area Under the Curve-t0 - ∞ (AUC0-∞),[3]; [11],9630 ng·h/mL
same,Peak Plasma Concentration (Cmax),[3]; [11],1592 ng/mL
same,Total tocols (sum of 0-8 h),[3]; single dose 750 mg δ-tocotrienol,4045 ng/mL
same,IC50,[4],20 µM
same,percentage of control at IC50 dose,[4],53%
same,effective dose,[4]; 48 h,20 µM
same,percentage of control at effective dose,[4]; 48 h,24%
same,value at effective dose,[4]; 48 h,17.7 ± 2.1
same,Time of clearance (Cl-T),[5]; 125 mg/d Annatto δ-tocotrienol,0.049 h⁻¹
same,Time of clearance (Cl-T),[5]; 250 mg/d Annatto δ-tocotrienol,0.045 h⁻¹
same,Time of clearance (Cl-T),[5]; 500 mg/d Annatto δ-tocotrienol,0.030 h⁻¹
same,time of appearance in the plasma,[5]; after δ-tocotrienol administration to well-fed subjects,> 2 h
same,Apparent volume of distribution (Vd/f),[5]; [12],0.179 ± 0.035^a
same,Elimination of Half-life time (t1/2),[5]; [12],1.74 ± 0.36^a h
same,Elimination rate constant (ke),[5]; [12],0.381 ± 0.059^a h-1
same,Plasma Peak Concentration (Cmax),[5]; [12],828.82 ± 24.28^a ng/mL
same,Time of clearance (Cl-T),[5]; [12],0.049 ± 0.004^a I/h
same,Time to achieve plasma peak (Tmax),[5]; [12],3.00 h
same,Area Under Curve-0 - 10 (AUC0-10),[5]; [13],2460 ng·h/mL
same,Plasma Peak Concentration (Cmax),[5]; [13],829 ng/mL
same,Apparent volume of distribution (Vd/f),[5]; [14],0.114 ± 0.011^b
same,Elimination of Half-life time (t1/2),[5]; [14],1.39 ± 0.22^a h
same,Elimination rate constant (ke),[5]; [14],0.401 ± 0.039^b h-1
same,Plasma Peak Concentration (Cmax),[5]; [14],1920.36 ± 57.99^b ng/mL
same,Time of clearance (Cl-T),[5]; [14],0.045 ± 0.002^a I/h
same,Time to achieve plasma peak (Tmax),[5]; [14],3.00 h
same,Area Under Curve-0 - 10 (AUC0-10),[5]; [15],5410 ng·h/mL
same,Plasma Peak Concentration (Cmax),[5]; [15],1920 ng/mL
same,Apparent volume of distribution (Vd/f),[5]; [16],0.613 ± 0.102^c
same,Elimination of Half-life time (t1/2),[5]; [16],2.54 ± 0.05^b h
same,Elimination rate constant (ke),[5]; [16],0.050 ± 0.008^c h-1
same,Plasma Peak Concentration (Cmax),[5]; [16],3278.00 ± 124.13^c ng/mL
same,Time of clearance (Cl-T),[5]; [16],0.030 ± 0.001^b I/h
same,Area Under Curve-0 - 10 (AUC0-10),[5]; [17],15000 ng·h/mL
same,Elimination rate constant (ke),[5]; [17],0.265 h⁻¹
same,Time to achieve plasma peak (Tmax),[5]; [17],6 h
same,bioavailability,[5]; when tocotrienols are supplemented in absence of tocopherols,better bioavailability
same,plasma miRNA-7a,[6]; [18],168.0 ± 1.41
same,plasma miRNA-15a,[6]; [18],179.0 ± 1.41
same,plasma miRNA-20a,[6]; [18],168.00 ± 2.24
same,plasma miRNA-21,[6]; [18],143.0 ± 2.83
same,plasma miRNA-29a,[6]; [18],142.0 ± 2.83
same,plasma miRNA-92a,[6]; [18],153.5 ± 2.12
same,plasma miRNA-200,[6]; [18],146.0 ± 1.41
same,plasma miRNA-206,[6]; [18],150 ± 2.83
same,"Circulating miRNA-7a, miRNA-15a, miRNA-20a, miRNA-21, miRNA-29a, miRNA-92a, miRNA-200, miRNA-206",[6]; compared to baseline in hypercholesterolemic subjects,up-regulated
same,chymotrypsin-like activity of 20S rabbit muscle proteasome,[7]; 40 μM,inhibition
same,chymotrypsin-like activity of 20S rabbit muscle proteasome,[7]; 80 μM,activation
